Measured values taken from US20240050385A1, “METHODS OF TREATING LEPTOMENINGEAL METASTASIS” (MEMORIAL SLOAN-KETTERING CANCER CENTER, priority 2020, published 2024).
“Also recorded” adds a separate entry of the source. Where a name gives a salt, the structure may show the parent alone.

Key:
MDA231-LeptoM cells = assay: In vivo leptomeningeal metastasis assay, MDA231-LeptoM model, intracisternal chelator treatment; set-up: species or system mouse; conditions: for Median Survival: every 3 days; for [Fe]: total iron in CSF
Method: FIG. 15A-15G. LCN2 transports iron to support cancer cell growth. (A) Tumor growth in mice injected with MDA231-LeptoM cells expressing shCtl or shLCN2. Treatment with either vehicle or 5 mg/mL holo-transferrin (diferric [Tf]) began on day 1 and continued every third day for a total of 7 doses. Left: Histogram represents in vivo BLI imaging post-inoculation at day 21. n=8-10 per group in each of two independent experiments. Right: Representative BLI images. ** indicates p<0.01 (unpaired t test). Data represent mean±SEM. (B) Kaplan-Meier survival curve of LeptoM groups from (A). sh1+Veh vs sh1+Tf, p<0.0001. sh2+Veh vs sh2+Tf, p<0.0001. (C) Soluble iron concentration from macrophages collected from CSF in lipopolysaccharide (LPS)-stimulated, LeptoM or LeptoM-shLCN2 (sh1 and sh2) mouse model at day 14. Soluble iron was measured by mass spectroscopy. n=4 per group. ** indicates p<0.01, *** indicates p<0.001, **** indicates p<0.0001 (unpaired t test). Data represent mean±SEM. (D and E) Phagocytosis (D) and reactive oxygen species (ROS) generation (E) in CSF-derived macrophages by flow cytometric analysis after LeptoM (LLC model), shLCN2 LPS, or vehicle (Ctl) treatment. Phagocytosis detected by FITC-labeled E. coli. CellROX Green^+ cells represent percent of live cells with ROS. n=12-15 (Ctl), n=4-5 (LPS), n=11-18 (LeptoM), n=8 (shLCN2). NS=not significant, * indicates p<0.05, ** indicates p<0.01, **** indicates p<0.0001 (unpaired t test). Data represent mean±SEM in two independent experiments. (F) Tumor growth in MDA231-LeptoM model after chelator treatment: deferoxamine (DFO), D-penicillamine (D-Pen) on […] (early) or day 7 (late); see also FIG. 16. Left: in vivo BLI imaging in day 28 post-inoculation. n=8-10 per group in each of two independent experiments. Right: Representative BLI images. **** indicates p<0.0001. Data represent mean±SEM. (G) Kaplan-Meier survival curve of mice treated in (F). p<0.0001.
(§1) FIG. 16A-16L. Iron chelator treatment reduces CSF iron. (A) Experimental scheme. Mice were inoculated with 2×10^3 cells intrathecally on day 0. Treatment with either vehicle, DFO, or D-pen was commenced on either day 1 or day 7 and continued every third day for a total of 7 doses. (B) Chelators delivered intrathecally. DFO, Deferoxamine. D-Pen, D-Penicillamine. (C-F) Intracellular iron (C and E) and viability (D and F) of PC9-LeptoM cells and MDA231-LeptoM cells after treatment with chelators in different concentrations (0 μM, 1 μM, 10 μM and 100 μM). n=3-4 per group in each of two independent experiments. * indicates p<0.05, ** indicates p<0.01, ***indicates p<0.001, **** indicates p<0.0001 (unpaired t test). Data represent mean±SEM. (G) Growth of PC9-LeptoM tumor after treatment indicated in (A). Left: in vivo BLI imaging in day 28 post-inoculation. n=8-10 per group in each of two independent experiments. Right: Representative BLI images. **** indicates p<0.0001. Data represent mean±SEM. (H) Kaplan-Meier survival curve from (C) and (E). p<0.0001. (I and J) Total iron concentration measured in CSF samples of mice with treatment of chelators in PC9-LeptoM Model (I) in MDA231-LeptoM model (J). NS=not significant, * indicates p<0.05, ** indicates p<0.01 (unpaired t test). Data represent mean±SEM. (K and L) Immune cell composition in CSF of LLC-LeptoM model with the treatment of vehicle, DFO, or D-pen at day 10. n=6 per group. NS=not significant, * indicates p<0.05, ** indicates p<0.01 (unpaired t test). Data represent mean±SEM.
In vivo leptomeningeal metastasis assays. To model leptomeningeal metastasis with a known consistent disease burden, 2×10^3 PC9, 2×10^3 MDA231, or 1×10^3 LLC Parental or LeptoM cells suspended in 10 μl PBS were injected into the cisterna magna of anesthetized mice. This procedure was tolerated well by the mice. Tumor progression was monitored by bioluminescence imaging (BLI) every 7 days after tumor cell inoculation, and mouse condition was monitored daily. […]

LeptoM cells = assay: Iron Assay, chelation assay in vitro (intracellular iron); type: cell-based, human; conditions: PC9-LeptoM and MDA231-LeptoM cells; 0, 1, 10, 100 μM; in words
From the text: as §1, with “NS=not significant, * indicates p<0.05, ** indicates p<0.01 (unpaired t test). Data represent mean±SEM. (K and L) Immune cell composition in CSF of LLC-LeptoM model with the treatment of vehicle, DFO, or D-pen at day 10. n=6 per group. NS=not significant, * indicates p<0.05, ** indicates p<0.01 (unpaired t test). Data represent mean±SEM.” left out
Iron Assay. […] The Iron Assay Kit (Sigma-Aldrich, MAK025) was used to quantify total iron in the intracellular contents and culture supernatant following the manufacturer's protocols. […]

[1] = IT-DFO dose escalation toxicity in healthy C57BL6/J mice; type: in vivo, mouse
Method: An IT-DFO dose escalation experiment was completed to determine the lethal dose to 10% of rodents (LD10) and any dose-dependent toxicities to the systemic circulation and organ function in a mouse model. In this study, healthy C57BL6/J mice were injected intracistemally with either PBS (control) or with a fixed dose of DFO (0.05 μM, 1 μM, 10 μM, 50 μM and 100 μM) in replicate at a schedule of twice weekly for a total of 6 weeks (42 days). Mice were monitored for weekly weights and survival trends. Remaining mice were sacrificed on day 46 and circulating blood collected via cardiac puncture. Blood was sent for complete blood count (CBC) with automated differential and complete metabolic panels (CMP).

SMILES	Median Survival (MDA231-LeptoM cells; MDA231-LeptoM model, intracisternal, start day not given)	[Fe] (MDA231-LeptoM cells; MDA231-LeptoM model, start day not given)	iron concentration in the CSF compared to control mice (MDA231-LeptoM cells; MDA231-LeptoM model, day 28, in words)	[Fe] (MDA231-LeptoM cells; MDA231-LeptoM model, early (day 0))	[Fe] (MDA231-LeptoM cells; MDA231-LeptoM model, late (day 7))	Median Survival (MDA231-LeptoM cells; MDA231-LeptoM model, treatment begun early (day 0))	Median Survival (MDA231-LeptoM cells; MDA231-LeptoM model, treatment begun late (day 7))	dissemination of cancer cells over the spinal cord (MDA231-LeptoM cells; MDA231 mouse model, both early and late treatment groups, in words)	survival compared with vehicle control (MDA231-LeptoM cells; MDA231 mouse model, in words)	iron levels within the LeptoM cells (LeptoM cells)	lethality with cumulative twice weekly dosing (LD for % rodents) ([1]; 10 μM group, one mouse died at day 24, total N=12)	lethality with cumulative twice weekly dosing (LD for % rodents) ([1]; 50 μM group, one mouse died at day 46, total N=8)	lethality following a single dose ([1]; any tested concentration (0.05, 1, 10, 50, 100 μM))	tolerability of intracisternal administration ([1]; mouse, in vivo)
CC(C)(S)[C@@H](N)C(=O)O [D-Pen, D-penicillamine]	28 ± 7 days	39.44 ± 2.43 µM												
CC(=O)N(O)CCCCCNC(=O)CCC(=O)N(O)CCCCCNC(=O)CCC(=O)N(O)CCCCCN [DFO, Deferoxamine mesylate]			profoundly decreased; also recorded: reduced CSF iron concentration to that of non-LeptoM control mice	10.55 ± 1.31 µM	9.19 ± 0.98 µM	54.5 ± 5.5 days	38 ± 7 days	impaired dissemination	conferred a survival benefit; also recorded: significant survival benefit	substantially suppressed; also recorded: dramatically suppressed	8.3%	12.5%	no mice died	well tolerated
